Experimental data from the NIST ThermoML archive (doi:10.1016/j.jct.2016.03.026).
Numbers after ± are expanded uncertainties.

Assay: xn = mol fraction of the nth substance listed
Settings: Fluid (supercritical or subcritical phases), x1 = 0.97; for speed of sound: 304.19 K, Frequency=5 MHz, Pulse-echo method; for mass density: 304.21 K, Vibrating tube method

O=C=O [carbon dioxide] + CO
Settings	mass density [kg/m3]	speed of sound [m/s]
7850 kPa	713.81 ± 0.83	–
7875 kPa	715.24 ± 0.83	–
7900 kPa	716.69 ± 0.83	–
7925 kPa	717.99 ± 0.83	–
7950 kPa	719.19 ± 0.83	–
7975 kPa	720.37 ± 0.83	–
8000 kPa	721.57 ± 0.83	–
8025 kPa	722.66 ± 0.83	–
8050 kPa	723.78 ± 0.83	–
8075 kPa	724.91 ± 0.83	–
8100 kPa	725.92 ± 0.83	–
8125 kPa	726.93 ± 0.83	–
8150 kPa	728.01 ± 0.83	–
8175 kPa	729.1 ± 0.83	–
8200 kPa	730.14 ± 0.83	–
8225 kPa	731.15 ± 0.83	–
8250 kPa	732.12 ± 0.83	–
8275 kPa	733.11 ± 0.83	–
8300 kPa	734.02 ± 0.82	–
8325 kPa	735.01 ± 0.82	–
8350 kPa	735.91 ± 0.82	–
8375 kPa	736.81 ± 0.82	–
8400 kPa	737.68 ± 0.82	–
8425 kPa	738.51 ± 0.82	–
8450 kPa	739.43 ± 0.82	–
8475 kPa	740.29 ± 0.82	–
8500 kPa	741.14 ± 0.82	–
8525 kPa	741.99 ± 0.82	–
8550 kPa	742.83 ± 0.82	–
8575 kPa	743.65 ± 0.82	–
8600 kPa	744.47 ± 0.82	–
8625 kPa	745.32 ± 0.82	–
8650 kPa	746.1 ± 0.82	–
8675 kPa	746.89 ± 0.82	–
8700 kPa	747.67 ± 0.82	–
8725 kPa	748.5 ± 0.82	–
8750 kPa	749.21 ± 0.82	–
8775 kPa	749.97 ± 0.82	–
8800 kPa	750.73 ± 0.82	–
8825 kPa	751.52 ± 0.82	–
8850 kPa	752.22 ± 0.82	–
8875 kPa	752.97 ± 0.82	–
8900 kPa	753.68 ± 0.82	–
8925 kPa	754.39 ± 0.82	–
8950 kPa	755.11 ± 0.82	–
8975 kPa	755.82 ± 0.82	–
9000 kPa	756.48 ± 0.82	–
9025 kPa	757.25 ± 0.82	–
9050 kPa	757.93 ± 0.82	–
9075 kPa	758.64 ± 0.82	–
9100 kPa	759.25 ± 0.82	–
9125 kPa	759.92 ± 0.82	–
9150 kPa	760.55 ± 0.82	–
9175 kPa	761.24 ± 0.82	–
9200 kPa	761.88 ± 0.82	–
9225 kPa	762.52 ± 0.82	–
9250 kPa	763.15 ± 0.82	–
9275 kPa	763.76 ± 0.82	–
9300 kPa	764.36 ± 0.82	–
9325 kPa	764.98 ± 0.82	–
9350 kPa	765.65 ± 0.82	–
9375 kPa	766.27 ± 0.82	–
9400 kPa	766.88 ± 0.82	–
9425 kPa	767.44 ± 0.82	–
9450 kPa	768.06 ± 0.82	–
9475 kPa	768.6 ± 0.82	–
9500 kPa	769.12 ± 0.82	–
9525 kPa	769.73 ± 0.82	–
9550 kPa	770.22 ± 0.82	–
9575 kPa	770.76 ± 0.82	–
9600 kPa	771.35 ± 0.82	–
9625 kPa	771.96 ± 0.82	–
9650 kPa	772.5 ± 0.82	–
9675 kPa	773.03 ± 0.82	–
9700 kPa	773.62 ± 0.82	–
9725 kPa	774.15 ± 0.82	–
9750 kPa	774.65 ± 0.82	–
9775 kPa	775.2 ± 0.82	–
9800 kPa	775.72 ± 0.82	–
9825 kPa	776.25 ± 0.82	–
9850 kPa	776.81 ± 0.82	–
9875 kPa	777.3 ± 0.82	–
9900 kPa	777.81 ± 0.82	–
9925 kPa	778.36 ± 0.82	–
9950 kPa	778.83 ± 0.82	–
9975 kPa	779.32 ± 0.82	–
10000 kPa	779.86 ± 0.82	–
10025 kPa	780.3 ± 0.82	–
10050 kPa	780.81 ± 0.82	–
10075 kPa	781.33 ± 0.82	–
10100 kPa	781.81 ± 0.82	–
10125 kPa	782.29 ± 0.82	–
10150 kPa	782.79 ± 0.82	–
10175 kPa	783.3 ± 0.82	–
10200 kPa	783.77 ± 0.82	–
10225 kPa	784.17 ± 0.82	–
10250 kPa	784.67 ± 0.82	–
10275 kPa	785.18 ± 0.82	–
10300 kPa	785.65 ± 0.82	–
10325 kPa	786.13 ± 0.82	–
10350 kPa	786.55 ± 0.82	–
10375 kPa	787.08 ± 0.82	–
10400 kPa	787.51 ± 0.82	–
10425 kPa	787.92 ± 0.82	–
10450 kPa	788.38 ± 0.82	–
10475 kPa	788.87 ± 0.82	–
10500 kPa	789.3 ± 0.82	–
10525 kPa	789.73 ± 0.82	–
10550 kPa	790.18 ± 0.82	–
10575 kPa	790.6 ± 0.82	–
10600 kPa	791.05 ± 0.82	–
65100 kPa	–	894.9 ± 1.2
70230 kPa	–	919.7 ± 1.2
75540 kPa	–	944.1 ± 1.2
79980 kPa	–	963.6 ± 1.3
90070 kPa	–	1005.1 ± 1.3
100040 kPa	–	1043.2 ± 1.3
109900 kPa	–	1078.3 ± 1.4
119960 kPa	–	1112.5 ± 1.4
140090 kPa	–	1173.8 ± 1.5
159770 kPa	–	1228.8 ± 1.6
180450 kPa	–	1282 ± 1.6
